In the NIST ThermoML archive (doi:10.1016/j.fluid.2004.02.021):
Numbers after ± are expanded uncertainties.

Conditions: Liquid

Row | Structure (SMILES) | vapor or sublimation pressure (283.15 K) [kPa] | vapor or sublimation pressure (288.15 K) [kPa] | vapor or sublimation pressure (293.15 K) [kPa] | vapor or sublimation pressure (298.15 K) [kPa] | vapor or sublimation pressure (303.15 K) [kPa] | vapor or sublimation pressure (308.15 K) [kPa] | vapor or sublimation pressure (313.15 K) [kPa] | vapor or sublimation pressure (318.15 K) [kPa] | vapor or sublimation pressure (323.15 K) [kPa]
1 | ClC(Cl)=C(Cl)Cl [tetrachloroethene] | 1.023 ± 0.023 | 1.4 ± 0.026 | 1.861 ± 0.028 | 2.462 ± 0.03 | 3.205 ± 0.033 | 4.117 ± 0.037 | 5.253 ± 0.041 | 6.621 ± 0.047 | 8.286 ± 0.054
2 | c1ccccc1 [benzene] | 6.078 ± 0.045 | 7.849 ± 0.052 | 10.03 ± 0.061 | 12.69 ± 0.072 | 15.93 ± 0.085 | 19.81 ± 0.1 | 24.4 ± 0.12 | 29.85 ± 0.14 | 36.24 ± 0.17
3 | ClC(Cl)C(Cl)Cl [1,1,2,2-tetrachloroethane] | 0.263 ± 0.008 | 0.373 ± 0.01 | 0.521 ± 0.013 | 0.711 ± 0.017 | 0.98 ± 0.022 | 1.289 ± 0.028 | 1.701 ± 0.027 | 2.236 ± 0.029 | 2.86 ± 0.032
